Consider one molecule from patent publication US20240263138A1, “METHODS FOR PREPARING A FOOD INGREDIENT AND COMPOSITIONS PRODUCED THEREBY” (SuperMeat the Essence of Meat Ltd., priority 2021, published 2024).

In this assay the test system is SM ES cells. Description: Direct differentiation of SM ES cells cultured with oleic acid. It counts as cell-based, chicken. The note with it: culturing in the presence of 300 uM, direct differentiation protocol. Here is the method: As used herein “direct differentiation protocol” refers to the addition of FAs at high concentrations to a stem cell culture e.g., pluripotent stem cells, (above 25 uM or above 100 uM, when serum is absent or present in the culture) stem cells in order to allow the cells to accumulate fat. […] Next step was to test the ability to control the fatty acid profile of SM ES cells by growing the cells in the presence of certain or several fatty acids (FAs), dependent on the selected edible species.

Regarding `CCCCCCCC/C=C\CCCCCCCC(=O)O` [oleic acid], the “proportion of oleic acid (OA) within cells” value is “double”.
